In ChEMBL document CHEMBL1201862, “PubChem BioAssay data set” (2004):
The source made the active and inactive calls.

What was measured:
[1] = target: T1, Endoribonuclease toxin MazF (Escherichia coli K-12, UniProt P0AE70); assay: MazF toxin RNase activators, dose response, biochemical, fluorescence, single-stranded RNA substrate, uHTS hits (AID 588481); type: functional
[2] = target: T1, Endoribonuclease toxin MazF; assay: fluorescent RNA oligo signal without MazF, dose response, counter-screen for MazEF activator project, biochemical, fluorescence, single-stranded RNase substrate (AID 588502); type: functional
[3] = target: T2, Sentrin-specific protease 1 (Homo sapiens, UniProt Q9P0U3); assay: potency of human SENP1 inhibitors, dose response, biochemical, kinetic FRET (AID 651697); type: functional; settings: read-out: IC50_Mean
T2 sequence (Q9P0U3 whole entry, the tested form may be a part): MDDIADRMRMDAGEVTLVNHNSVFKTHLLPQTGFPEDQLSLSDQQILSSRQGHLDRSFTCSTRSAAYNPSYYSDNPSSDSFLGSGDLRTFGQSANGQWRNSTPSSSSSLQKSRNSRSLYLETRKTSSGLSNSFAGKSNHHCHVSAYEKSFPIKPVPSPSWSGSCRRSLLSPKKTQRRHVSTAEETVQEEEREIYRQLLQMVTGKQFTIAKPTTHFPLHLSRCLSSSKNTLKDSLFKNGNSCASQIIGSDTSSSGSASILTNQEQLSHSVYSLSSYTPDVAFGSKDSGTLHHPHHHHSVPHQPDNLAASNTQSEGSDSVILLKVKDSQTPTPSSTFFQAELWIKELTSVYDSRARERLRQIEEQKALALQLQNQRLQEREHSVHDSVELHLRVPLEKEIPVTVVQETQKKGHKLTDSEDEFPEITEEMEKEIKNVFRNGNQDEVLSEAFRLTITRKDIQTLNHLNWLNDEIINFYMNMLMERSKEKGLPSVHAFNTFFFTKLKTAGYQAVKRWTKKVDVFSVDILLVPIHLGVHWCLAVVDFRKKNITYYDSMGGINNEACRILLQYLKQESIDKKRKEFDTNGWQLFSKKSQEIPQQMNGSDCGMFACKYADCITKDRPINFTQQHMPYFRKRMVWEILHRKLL

[4] = target: T2, Sentrin-specific protease 1; assay: Dose response confirmation of small molecule inhibitors of the catalytic domain of the SUMO protease, SENP1 in a FRET assay.; type: functional; settings: read-out: IC50_Mean
Caspase-3 = target: T3, Caspase-3 (Homo sapiens, UniProt P42574); assay: caspase-3 inhibitors as off-family protease, SAR follow-up, selectivity assay for SENP protease inhibitor project, biochemical, luminescence, set 2 (AID 588599); type: functional
T3 sequence (P42574 whole entry): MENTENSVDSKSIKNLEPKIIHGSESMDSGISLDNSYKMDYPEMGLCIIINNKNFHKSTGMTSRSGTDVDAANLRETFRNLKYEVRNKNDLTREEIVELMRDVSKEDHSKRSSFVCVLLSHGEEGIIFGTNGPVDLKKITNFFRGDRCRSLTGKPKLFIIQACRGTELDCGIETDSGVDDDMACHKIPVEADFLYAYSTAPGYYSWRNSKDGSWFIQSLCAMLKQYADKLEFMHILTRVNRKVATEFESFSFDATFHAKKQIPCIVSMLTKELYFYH

[5] = target: T4, Sentrin-specific protease 8 (Homo sapiens, UniProt Q96LD8); assay: SENP8 protease inhibitors, SAR follow-up, biochemical, luminescence, set 2 (AID 588601); type: functional
T4 sequence (Q96LD8 whole entry): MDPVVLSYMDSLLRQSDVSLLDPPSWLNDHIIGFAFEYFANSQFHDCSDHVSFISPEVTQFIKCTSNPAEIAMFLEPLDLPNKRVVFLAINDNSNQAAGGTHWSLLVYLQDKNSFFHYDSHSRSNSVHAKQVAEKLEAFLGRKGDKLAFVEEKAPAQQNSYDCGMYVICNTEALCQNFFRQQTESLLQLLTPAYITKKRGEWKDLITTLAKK

[6] = target: T5, Sentrin-specific protease 7 (Homo sapiens, UniProt Q9BQF6); assay: SENP7 protease inhibitors, SAR follow-up, biochemical, luminescence, set 2 (AID 588600); type: functional
T5 sequence (Q9BQF6 whole entry): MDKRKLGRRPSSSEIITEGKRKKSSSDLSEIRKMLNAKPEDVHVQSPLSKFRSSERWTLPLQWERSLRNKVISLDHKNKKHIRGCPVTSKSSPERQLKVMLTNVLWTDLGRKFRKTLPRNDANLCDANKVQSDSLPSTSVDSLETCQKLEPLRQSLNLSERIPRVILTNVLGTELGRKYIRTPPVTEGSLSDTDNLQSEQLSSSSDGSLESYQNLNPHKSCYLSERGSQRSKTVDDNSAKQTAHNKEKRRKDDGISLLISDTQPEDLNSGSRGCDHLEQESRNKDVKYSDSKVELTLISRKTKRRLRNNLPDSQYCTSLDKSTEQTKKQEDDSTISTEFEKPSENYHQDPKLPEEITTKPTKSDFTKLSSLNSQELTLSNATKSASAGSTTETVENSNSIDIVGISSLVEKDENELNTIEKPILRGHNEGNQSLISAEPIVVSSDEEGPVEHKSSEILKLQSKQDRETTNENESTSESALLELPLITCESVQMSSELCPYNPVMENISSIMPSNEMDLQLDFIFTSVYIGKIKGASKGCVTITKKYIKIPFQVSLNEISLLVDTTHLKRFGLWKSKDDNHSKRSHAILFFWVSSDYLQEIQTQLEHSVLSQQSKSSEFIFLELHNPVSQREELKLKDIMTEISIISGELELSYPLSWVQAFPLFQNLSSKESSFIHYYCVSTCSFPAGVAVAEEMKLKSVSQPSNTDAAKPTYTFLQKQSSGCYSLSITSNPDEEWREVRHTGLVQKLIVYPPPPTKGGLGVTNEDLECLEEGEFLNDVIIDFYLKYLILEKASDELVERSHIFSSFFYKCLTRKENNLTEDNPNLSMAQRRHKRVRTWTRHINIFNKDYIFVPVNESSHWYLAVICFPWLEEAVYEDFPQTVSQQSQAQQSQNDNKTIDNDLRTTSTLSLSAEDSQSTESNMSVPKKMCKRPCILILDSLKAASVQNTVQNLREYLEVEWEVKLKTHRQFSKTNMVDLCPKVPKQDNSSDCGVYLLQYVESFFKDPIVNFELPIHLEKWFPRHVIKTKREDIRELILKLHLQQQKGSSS

[7] = target: T6, Sentrin-specific protease 6 (Homo sapiens, UniProt Q9GZR1); assay: SENP6 protease inhibitors, SAR follow-up, biochemical, luminescence, set 2 (AID 588598); type: functional
T6 sequence (Q9GZR1 whole entry): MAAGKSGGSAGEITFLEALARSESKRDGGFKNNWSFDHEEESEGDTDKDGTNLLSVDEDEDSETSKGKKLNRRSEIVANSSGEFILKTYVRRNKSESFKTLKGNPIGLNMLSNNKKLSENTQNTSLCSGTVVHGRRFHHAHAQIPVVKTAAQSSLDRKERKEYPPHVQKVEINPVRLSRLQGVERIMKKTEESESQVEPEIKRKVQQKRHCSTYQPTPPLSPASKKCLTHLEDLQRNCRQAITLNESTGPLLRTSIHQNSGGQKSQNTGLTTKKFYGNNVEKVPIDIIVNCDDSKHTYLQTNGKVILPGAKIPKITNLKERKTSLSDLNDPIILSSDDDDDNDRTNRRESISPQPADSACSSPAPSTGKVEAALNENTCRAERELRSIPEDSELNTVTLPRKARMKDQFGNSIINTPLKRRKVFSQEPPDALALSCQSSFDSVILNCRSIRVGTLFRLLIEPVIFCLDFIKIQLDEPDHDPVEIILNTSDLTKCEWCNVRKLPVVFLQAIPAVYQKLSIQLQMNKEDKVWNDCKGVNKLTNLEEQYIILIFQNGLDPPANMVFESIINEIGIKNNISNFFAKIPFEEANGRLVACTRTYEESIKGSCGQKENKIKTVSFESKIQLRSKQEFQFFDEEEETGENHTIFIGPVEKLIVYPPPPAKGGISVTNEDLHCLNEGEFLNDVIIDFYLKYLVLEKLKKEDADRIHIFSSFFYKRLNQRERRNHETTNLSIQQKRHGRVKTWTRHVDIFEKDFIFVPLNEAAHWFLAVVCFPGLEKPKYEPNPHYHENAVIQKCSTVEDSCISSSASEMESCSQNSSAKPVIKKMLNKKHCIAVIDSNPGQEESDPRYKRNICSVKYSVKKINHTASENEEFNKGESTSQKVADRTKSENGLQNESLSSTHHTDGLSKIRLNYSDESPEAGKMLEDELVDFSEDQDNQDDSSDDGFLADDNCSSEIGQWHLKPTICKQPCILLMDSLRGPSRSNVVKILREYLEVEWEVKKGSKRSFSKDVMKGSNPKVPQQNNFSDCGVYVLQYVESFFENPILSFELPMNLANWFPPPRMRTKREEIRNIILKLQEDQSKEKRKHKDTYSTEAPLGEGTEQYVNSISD

[8] = target: Envelope glycoprotein gp160 (Human immunodeficiency virus 1, UniProt Q6QLK5); assay: inhibitors of HIV fusion peptide binding, primary screen, biochemical, uHTS, fluorescence dequenching (AID 1986)
[9] = target: T7, RNA-binding protein pos-1 (Caenorhabditis elegans, UniProt G5EF15); assay: inhibitors of POS-1/mex-3 RNA binding, dose response, biochemical, fluorescence polarization (AID 1964);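 note: purified POS-1 fused to maltose binding protein made in E. coli; potency of compounds blocking POS-1 binding to fluorescent RNA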
T7 sequence (G5EF15 whole entry): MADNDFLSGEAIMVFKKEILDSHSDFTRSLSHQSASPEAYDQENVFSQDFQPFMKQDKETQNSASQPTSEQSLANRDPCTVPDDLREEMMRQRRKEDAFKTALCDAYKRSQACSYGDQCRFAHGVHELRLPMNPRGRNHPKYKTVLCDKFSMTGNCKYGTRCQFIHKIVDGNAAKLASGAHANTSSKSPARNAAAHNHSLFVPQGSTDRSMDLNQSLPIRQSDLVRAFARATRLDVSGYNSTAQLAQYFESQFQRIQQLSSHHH

Large T antigen = Large T antigen (Simian virus 40, UniProt P03070); type: functional, Betapolyomavirus macacae;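 note: Confirmatory-stage PubChem screen for compounds that inhibit SV40 T antigen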
Large T antigen, sequence (P03070 whole entry): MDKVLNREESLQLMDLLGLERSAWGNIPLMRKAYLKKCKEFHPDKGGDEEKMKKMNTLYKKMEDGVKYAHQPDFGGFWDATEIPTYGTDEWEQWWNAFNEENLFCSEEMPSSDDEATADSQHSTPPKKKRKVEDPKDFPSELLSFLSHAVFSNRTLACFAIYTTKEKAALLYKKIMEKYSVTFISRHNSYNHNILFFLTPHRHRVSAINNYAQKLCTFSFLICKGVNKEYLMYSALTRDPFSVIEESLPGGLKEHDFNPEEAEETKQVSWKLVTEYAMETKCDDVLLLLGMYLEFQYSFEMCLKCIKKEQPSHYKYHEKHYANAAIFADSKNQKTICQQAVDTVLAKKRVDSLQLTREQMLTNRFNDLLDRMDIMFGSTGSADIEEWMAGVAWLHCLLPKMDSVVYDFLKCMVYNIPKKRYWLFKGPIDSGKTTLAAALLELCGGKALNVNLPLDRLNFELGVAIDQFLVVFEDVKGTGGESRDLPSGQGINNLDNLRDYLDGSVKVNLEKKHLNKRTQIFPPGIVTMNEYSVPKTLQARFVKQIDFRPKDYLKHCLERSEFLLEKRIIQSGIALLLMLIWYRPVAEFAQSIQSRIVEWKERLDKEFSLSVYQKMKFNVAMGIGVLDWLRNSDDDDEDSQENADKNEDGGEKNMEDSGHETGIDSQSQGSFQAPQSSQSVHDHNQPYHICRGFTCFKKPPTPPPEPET

NS3 = NS3 (Hepatitis C virus, UniProt A3EZJ3); assay: PubChem AID 2173; set-up: species or system Hepacivirus hominis
NS3, sequence (A3EZJ3 whole entry): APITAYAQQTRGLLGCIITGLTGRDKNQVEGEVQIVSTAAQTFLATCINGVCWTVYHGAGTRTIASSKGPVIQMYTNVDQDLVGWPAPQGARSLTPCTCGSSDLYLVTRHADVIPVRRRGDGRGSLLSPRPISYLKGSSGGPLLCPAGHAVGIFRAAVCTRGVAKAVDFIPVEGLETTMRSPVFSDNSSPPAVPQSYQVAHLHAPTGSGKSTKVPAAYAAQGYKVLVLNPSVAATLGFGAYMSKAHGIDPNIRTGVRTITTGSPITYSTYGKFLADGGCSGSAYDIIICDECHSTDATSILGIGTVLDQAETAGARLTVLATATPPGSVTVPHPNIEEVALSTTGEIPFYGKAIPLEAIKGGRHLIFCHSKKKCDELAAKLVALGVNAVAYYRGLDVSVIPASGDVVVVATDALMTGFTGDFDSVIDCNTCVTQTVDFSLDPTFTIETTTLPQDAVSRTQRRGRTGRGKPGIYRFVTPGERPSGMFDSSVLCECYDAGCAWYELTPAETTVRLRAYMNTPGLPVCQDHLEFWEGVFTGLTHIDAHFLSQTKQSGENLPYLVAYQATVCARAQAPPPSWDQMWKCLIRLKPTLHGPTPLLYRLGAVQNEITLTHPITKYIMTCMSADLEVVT

[10] = target: Intestinal-type alkaline phosphatase (Mus musculus, UniProt P24822); assay: PubChem AID 488785; type: functional
Intestinal-type alkaline phosphatase (Mus musculus, UniProt P24822), sequence (P24822 whole entry): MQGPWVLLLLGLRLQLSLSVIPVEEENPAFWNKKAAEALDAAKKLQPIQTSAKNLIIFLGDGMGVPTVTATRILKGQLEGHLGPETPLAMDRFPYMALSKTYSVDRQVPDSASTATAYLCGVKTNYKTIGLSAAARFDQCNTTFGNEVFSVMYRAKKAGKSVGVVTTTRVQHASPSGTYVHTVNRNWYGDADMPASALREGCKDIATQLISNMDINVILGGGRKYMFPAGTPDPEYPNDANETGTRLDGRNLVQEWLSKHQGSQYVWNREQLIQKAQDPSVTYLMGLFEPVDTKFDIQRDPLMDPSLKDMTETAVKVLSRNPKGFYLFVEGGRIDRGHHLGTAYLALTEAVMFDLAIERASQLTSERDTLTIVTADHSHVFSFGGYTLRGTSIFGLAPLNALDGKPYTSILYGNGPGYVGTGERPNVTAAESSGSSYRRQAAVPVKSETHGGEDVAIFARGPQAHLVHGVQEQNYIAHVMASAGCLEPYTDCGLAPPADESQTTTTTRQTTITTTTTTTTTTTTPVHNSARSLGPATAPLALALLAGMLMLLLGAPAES

[11] = target: Beta-adrenergic receptor kinase 1 (Homo sapiens, UniProt P25098); assay: aptamer displacement from bead-bound GRK2 – biochemical, cherry pick 1, bead flow cytometry, dose response (AID 504500)
Beta-adrenergic receptor kinase 1, sequence (P25098 whole entry): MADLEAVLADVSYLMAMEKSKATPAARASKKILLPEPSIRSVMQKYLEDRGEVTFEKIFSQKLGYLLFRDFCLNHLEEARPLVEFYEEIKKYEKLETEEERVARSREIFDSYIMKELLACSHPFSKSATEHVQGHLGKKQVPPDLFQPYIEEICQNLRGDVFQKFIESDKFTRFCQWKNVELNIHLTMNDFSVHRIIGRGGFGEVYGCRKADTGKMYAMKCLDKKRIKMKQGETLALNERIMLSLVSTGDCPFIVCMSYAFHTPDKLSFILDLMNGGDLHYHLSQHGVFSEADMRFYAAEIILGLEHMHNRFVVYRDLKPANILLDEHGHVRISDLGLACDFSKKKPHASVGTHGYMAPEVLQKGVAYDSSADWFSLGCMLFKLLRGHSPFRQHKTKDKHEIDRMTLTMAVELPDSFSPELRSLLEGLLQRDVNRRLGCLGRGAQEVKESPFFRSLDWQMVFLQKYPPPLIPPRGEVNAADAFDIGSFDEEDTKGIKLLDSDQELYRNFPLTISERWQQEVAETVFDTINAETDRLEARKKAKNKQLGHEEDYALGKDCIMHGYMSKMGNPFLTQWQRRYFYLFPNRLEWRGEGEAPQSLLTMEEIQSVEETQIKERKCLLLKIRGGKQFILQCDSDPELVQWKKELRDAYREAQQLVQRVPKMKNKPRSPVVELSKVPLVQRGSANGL

[12] = target: T8, Alkaline phosphatase, tissue-nonspecific isozyme (Homo sapiens, UniProt P05186); assay: TNAP enzyme inhibition by screening hits, dose response, selectivity assay for mouse IAP inhibitor project, biochemical, human TNAP, uHTS hits (AID 488906); type: functional
T8 sequence (P05186 whole entry): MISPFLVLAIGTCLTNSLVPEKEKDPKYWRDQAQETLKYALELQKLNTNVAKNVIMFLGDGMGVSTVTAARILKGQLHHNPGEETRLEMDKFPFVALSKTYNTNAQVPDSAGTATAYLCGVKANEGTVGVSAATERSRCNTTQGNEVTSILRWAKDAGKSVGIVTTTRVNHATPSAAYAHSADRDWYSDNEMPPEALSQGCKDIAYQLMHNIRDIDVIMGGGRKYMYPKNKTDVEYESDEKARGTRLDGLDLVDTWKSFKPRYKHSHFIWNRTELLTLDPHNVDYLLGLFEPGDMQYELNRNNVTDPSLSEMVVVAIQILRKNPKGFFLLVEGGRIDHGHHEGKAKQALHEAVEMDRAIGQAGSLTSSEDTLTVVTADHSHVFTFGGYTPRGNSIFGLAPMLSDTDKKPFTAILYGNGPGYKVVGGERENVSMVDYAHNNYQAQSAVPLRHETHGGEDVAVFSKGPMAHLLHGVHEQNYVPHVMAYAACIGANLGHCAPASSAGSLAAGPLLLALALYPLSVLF

[13] = target: Intestinal-type alkaline phosphatase (Homo sapiens, UniProt P09923); assay: inhibition of human intestinal alkaline phosphatase – biochemical, dose response (AID 488876); type: functional
Intestinal-type alkaline phosphatase (Homo sapiens, UniProt P09923), sequence (P09923 whole entry): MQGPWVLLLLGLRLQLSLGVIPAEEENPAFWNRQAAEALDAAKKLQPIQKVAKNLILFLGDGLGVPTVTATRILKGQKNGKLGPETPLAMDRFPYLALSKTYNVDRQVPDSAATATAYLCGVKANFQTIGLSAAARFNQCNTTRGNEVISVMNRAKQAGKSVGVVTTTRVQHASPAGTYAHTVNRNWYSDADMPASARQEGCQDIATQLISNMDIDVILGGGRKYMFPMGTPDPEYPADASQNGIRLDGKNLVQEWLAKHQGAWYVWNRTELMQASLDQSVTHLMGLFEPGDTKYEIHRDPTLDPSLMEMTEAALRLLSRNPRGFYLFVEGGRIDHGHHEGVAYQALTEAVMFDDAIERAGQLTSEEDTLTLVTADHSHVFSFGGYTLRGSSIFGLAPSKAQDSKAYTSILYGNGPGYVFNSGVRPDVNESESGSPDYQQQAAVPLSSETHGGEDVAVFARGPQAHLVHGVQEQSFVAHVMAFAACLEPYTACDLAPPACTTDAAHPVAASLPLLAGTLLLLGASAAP

Genome polyprotein = Genome polyprotein (dengue virus type 2, UniProt P29990); assay: Dengue-2 NS5 methyltransferase inhibitors, primary screen, biochemical, confirmation dose response (AID 588689); type: functional
Phospholipase D1 = Phospholipase D1 (Homo sapiens, UniProt Q13393); assay: PLD1 inhibitor potency in cells, dose response (AID 602151); type: functional;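 note: cellular PLD1 assay in Calu-1 cells stimulated with PMA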
Phospholipase D2 = Phospholipase D2 (Homo sapiens, UniProt O14939); assay: PLD2 inhibitor potency in cells, dose response (AID 602147); type: functional;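 note: cellular assay in HEK293 cells overexpressing GFP-tagged PLD2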
Phospholipase D2, sequence (O14939 whole entry): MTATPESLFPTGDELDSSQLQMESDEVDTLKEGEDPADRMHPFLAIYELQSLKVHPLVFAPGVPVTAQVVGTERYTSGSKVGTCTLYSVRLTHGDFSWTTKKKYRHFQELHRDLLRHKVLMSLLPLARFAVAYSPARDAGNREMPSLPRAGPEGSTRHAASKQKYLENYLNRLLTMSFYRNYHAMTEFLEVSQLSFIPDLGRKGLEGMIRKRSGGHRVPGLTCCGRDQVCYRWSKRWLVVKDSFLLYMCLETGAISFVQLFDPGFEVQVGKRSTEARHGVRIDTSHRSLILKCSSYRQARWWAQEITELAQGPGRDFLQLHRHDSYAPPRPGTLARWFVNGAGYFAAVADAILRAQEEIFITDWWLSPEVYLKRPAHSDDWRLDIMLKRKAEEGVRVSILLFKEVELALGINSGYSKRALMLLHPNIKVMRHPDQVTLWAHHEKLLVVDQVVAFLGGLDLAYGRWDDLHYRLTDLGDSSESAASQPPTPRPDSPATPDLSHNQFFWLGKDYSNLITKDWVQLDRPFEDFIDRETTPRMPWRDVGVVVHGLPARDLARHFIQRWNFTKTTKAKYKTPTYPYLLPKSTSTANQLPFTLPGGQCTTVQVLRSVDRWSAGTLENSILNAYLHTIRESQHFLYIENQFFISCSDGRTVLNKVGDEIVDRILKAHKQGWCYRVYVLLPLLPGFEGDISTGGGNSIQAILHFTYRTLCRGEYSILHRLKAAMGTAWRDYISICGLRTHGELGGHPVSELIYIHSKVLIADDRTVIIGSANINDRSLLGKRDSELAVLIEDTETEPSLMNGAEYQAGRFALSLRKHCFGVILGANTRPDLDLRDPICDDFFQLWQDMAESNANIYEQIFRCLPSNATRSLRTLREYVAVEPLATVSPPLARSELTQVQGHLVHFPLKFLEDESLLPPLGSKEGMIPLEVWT

[14] = test system: Streptococcus sp. 'group A'; assay: growth inhibition of control SK(-) GAS strain, dose response, counter-screen for streptokinase expression inhibitor project, luminescence, kanamycin, BacTiterGlo, confirmation (AID 1900); type: functional, organism-based
Streptokinase A = target: T9, Streptokinase A (Streptococcus pyogenes serotype M1, UniProt P10520); assay: S. pyogenes streptokinase expression inhibitors, potency, dose response, plasminogen activation absorbance, OD405 (AID 1914); type: functional, Streptococcus pyogenes M1 GAS;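 note: secreted streptokinase activity via plasminogen activation per viability signal from cell pellet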
T9 sequence (P10520 whole entry): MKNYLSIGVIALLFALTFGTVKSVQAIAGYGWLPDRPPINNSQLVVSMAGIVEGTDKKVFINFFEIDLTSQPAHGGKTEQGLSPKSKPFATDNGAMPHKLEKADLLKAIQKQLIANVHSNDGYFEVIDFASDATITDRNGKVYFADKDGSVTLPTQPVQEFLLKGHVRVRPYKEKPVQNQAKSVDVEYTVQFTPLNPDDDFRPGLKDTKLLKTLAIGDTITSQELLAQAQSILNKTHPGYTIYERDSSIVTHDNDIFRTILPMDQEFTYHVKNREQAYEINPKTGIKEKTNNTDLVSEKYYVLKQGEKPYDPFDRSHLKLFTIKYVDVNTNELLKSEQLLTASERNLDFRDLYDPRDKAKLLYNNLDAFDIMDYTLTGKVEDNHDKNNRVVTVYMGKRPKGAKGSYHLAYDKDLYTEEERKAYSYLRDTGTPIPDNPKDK

Streptococcus = assay: Group A Streptococcus viability loss, dose response, counter-screen for streptokinase expression inhibitor project, luminescence, BacTiterGlo (AID 1915); type: functional, organism-based;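 note: potency for reduction of bacterial viability or growth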
[15] = target: Dual specificity tyrosine-phosphorylation-regulated kinase 1A (Rattus norvegicus, UniProt Q63470); type: biochemical, Homo sapiens

T1 sequence (P0AE70 whole entry): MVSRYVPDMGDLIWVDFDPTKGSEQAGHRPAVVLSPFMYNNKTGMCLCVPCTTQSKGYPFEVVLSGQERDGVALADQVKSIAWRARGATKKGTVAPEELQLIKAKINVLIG

O=C(CCN1C(=O)/C(=C/c2cccs2)SC1=S)NNC(=O)c1cccc(O)c1
EC50 [1]: > 99 µM (inactive) | EC50 [2]: > 99 µM (inactive) | IC50 [3]: 16.2 µM (active) | IC50 [4]: 21.9 µM (inactive)

Cc1ccc2nc(NC(=O)c3cccc(-n4cnnn4)c3)sc2c1
IC50 (Caspase-3): > 99 µM (inactive) | IC50 [5]: > 99 µM (inactive) | IC50 [6]: > 99 µM (inactive) | IC50 [7]: > 99 µM (inactive)

COc1ccc(N2C(=O)/C(=C/c3ccco3)C(=O)NC2=S)cc1
IC50 [8]: 22.3 µM (active) | EC50 [9]: 5.3 µM (active) | IC50 (Large T antigen): 10.8 µM (active) | IC50 (NS3): 4.61 µM (active) | IC50 [10]: 16.2 µM (active) | EC50 [11]: 7.83 µM (active) | IC50 [12]: 32.4 µM (active) | IC50 [13]: 46 µM (active) | IC50 (Genome polyprotein): > 100 µM (active)

O=C(NCCN1CCC(C(=O)NCCc2ccccn2)CC1)c1ccc2ccccc2c1
IC50 (Phospholipase D1): 20 µM (active) | IC50 (Phospholipase D2): 4.2 µM (active)

CC1CCc2c(C(=O)Nc3cccc(-c4nn[nH]n4)c3)csc2C1 (stereo not drawn)
EC50 [14]: 127 µM (active) | EC50 (Streptokinase A): 27.3 µM (active) | EC50 (Streptococcus): > 150 µM (not active) | AC50 [15]: 8.35 µM (active)
